Assay results reported in patent publication US20190330226A1, “POSITIVE ALLOSTERIC MODULATORS OF THE MUSCARINIC ACETYLCHOLINE RECEPTOR M1” (Vanderbilt University, priority 2018, published 2019).

Target: T1, human mAChR M1 (Homo sapiens, UniProt P11229)
T1 construct: host or cells: CHO-K1 (ATCC), stably transfected using Lipofectamine 2000
T1 sequence (P11229 1-460): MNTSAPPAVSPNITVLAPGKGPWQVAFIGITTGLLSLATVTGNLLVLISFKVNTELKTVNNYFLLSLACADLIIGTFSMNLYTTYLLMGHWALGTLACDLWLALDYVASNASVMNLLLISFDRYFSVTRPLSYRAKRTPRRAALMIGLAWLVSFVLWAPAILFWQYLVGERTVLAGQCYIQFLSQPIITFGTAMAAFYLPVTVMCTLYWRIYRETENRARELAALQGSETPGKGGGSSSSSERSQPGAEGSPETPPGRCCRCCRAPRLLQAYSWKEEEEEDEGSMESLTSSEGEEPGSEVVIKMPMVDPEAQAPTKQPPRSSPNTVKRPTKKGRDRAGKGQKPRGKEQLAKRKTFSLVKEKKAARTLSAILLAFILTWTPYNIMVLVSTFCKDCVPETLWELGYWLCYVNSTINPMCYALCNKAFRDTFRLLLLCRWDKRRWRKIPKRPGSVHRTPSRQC
Experiment: mAChR M1 cell-based functional assay (calcium mobilization, Fluo-4, FDSS)
Conditions: CHO-K1 cells stably expressing hM1, calcium flux; for Emax: PAM mode with EC20 acetylcholine; for EC50: concentration-dependent increase in the EC20 acetylcholine response
Source text: Chinese hamster ovary (CHO-K1) cells stably expressing rat (r)M1 were purchased from the American Type Culture Collection and cultured according to their indicated protocol. CHO cells stably expressing human (h)M2, hM3, and hM5 were described previously (Levey, et al., 1991); hM1 and hM4 cDNAs were purchased from Missouri S&T cDNA Resource; rM4 cDNA was provided by T. I. Bonner (National Institutes of Health, Bethesda, Md.). rM2 and rM3 were cloned from a rat brain cDNA library and sequence verified. hM1, rM2, rM3, hM4, and rM4 cDNAs were used to stably transfect CHO-K1 cells purchased from the American Type Culture Collection using Lipofectamine 2000. To make stable rM2, hM2, rM3, hM4, and rM4 cell lines for use in calcium mobilization assays, these cells also were stably transfected with a chimeric G-protein (Gqi5) (provided by B. R. Conklin, University of California, San Francisco) using Lipofectamine 2000. rM1, hM1, rM3, hM3, rM5, and hM5 cells were grown in Ham's F-12 medium containing 10% heat-inactivated fetal bovine serum (FBS), 20 mM HEPES, and 50 µg/mL G418 sulfate. rM2-Gqi5, hM2-Gqi5, and hM4-Gqi5 cells were grown in the same medium also containing 500 μg/mL Hygromycin B. Stable rM4-Gqi5 cells were grown in DMEM containing 10% heat-inactivated FBS, 20 mM HEPES, 400 μg/mL G418 sulfate, and 500 μg/mL Hygromycin B.
For high throughput measurement of agonist-evoked increases in intracellular calcium, CHO-K1 cells stably expressing muscarinic receptors were plated in growth medium lacking G418 and hygromycin at 15,000 cells/20 μL/well in Greiner 384-well black-walled, tissue culture (TC)-treated, clear-bottom plates (VWR). Cells were incubated overnight at 37° C. and 5% CO2. The next day, cells were washed using an ELX 405 (BioTek) with four washes ([…]) of assay buffer then aspirated to 20 μL. Next, 20 μL of 16 μM Fluo-4/acetoxymethyl ester (Invitrogen, Carlsbad, Calif.) prepared as a 2.3 mM stock in DMSO and mixed in a 1:1 ratio with 10% (w/v) Pluronic F-127 and diluted in assay buffer was added to the wells and the cell plates were incubated for 50 min at 37° C. and 5% CO2. Dye was removed by washing with the ELX 405 (four 80 μL washes of assay buffer) then aspirated to 20 μL. Compound master plates were formatted in an 11 point CRC format (1:3 dilutions) in 100% DMSO with a starting concentration of 10 mM using the BRAVO liquid handler (Agilent). Test compound CRCs were then transferred to daughter plates (240 nL) using the Echo acoustic plate reformatter (Labcyte, Sunnyvale, Calif.) and then diluted into assay buffer (40 μL) to a 2× stock using a Thermo Fisher Combi (Thermo Fisher Scientific, Waltham, Mass.).
Calcium flux was measured using the Functional Drug Screening System (FDSS) 6000 (Hamamatsu Corporation, Tokyo, Japan) as an increase in the fluorescent static ratio. Compounds were applied to cells (20 μL, 2×) using the automated system of the FDSS 6000 at 4 s into the 300 s protocol and the data were collected at 1 Hz. At 144 s into the 300s protocol, 10 μL of an EC20 concentration of the muscarinic receptor agonist acetylcholine was added (5×), followed by the addition of 12 μL an EC80 concentration of acetylcholine at the 230 s time point (5×). Agonist activity was analyzed as a concentration-dependent increase in calcium mobilization upon compound addition. Positive allosteric modulator activity was analyzed as a concentration-dependent increase in the EC20 acetylcholine response. Antagonist activity was analyzed as a concentration-dependent decrease in the EC80 acetylcholine response. Concentration-response curves were generated using a four-parameter logistical equation in XLfit curve fitting software (IDBS, Bridgewater, N.J.) for Excel (Microsoft, Redmond, Wash.) or Prism (GraphPad Software, Inc., San Diego, Calif.).
Activity (EC50 and Emax) was determined in the mAChR M1 cell-based functional assay as described above and the data are shown in Table 2. […]

Emax | EC50 | SMILES
30% | 0.5 µM | O=C1c2ccsc2CN1Cc1c(F)cc(-c2ccc3nccn3c2)cc1F [Compound 30, 5-(2,6-difluoro-4-(imidazo[1,2-a]pyridin-6-yl)benzyl)-5,6-dihydro-4H-thieno[2,3-c]pyrrol-4-one]
40% | 0.246 µM | Cn1cc2cc(-c3cc(F)c(CN4Cc5ccsc5C4=O)c(F)c3)ccc2n1 [Compound 31, 5-(2,6-difluoro-4-(2-methyl-2H-indazol-5-yl)benzyl)-4,5-dihydro-6H-thieno[2,3-c]pyrrol-6-one]
67% | 4.9 µM | Cn1cc(-c2ccc(CN3Cc4ccsc4C3=O)c(F)c2)cn1 [Compound 32, 5-(2-fluoro-4-(1-methyl-1H-pyrazol-4-yl)benzyl)-4,5-dihydro-6H-thieno[2,3-c]pyrrol-6-one]
56% | 2.23 µM | Cn1cc2cc(-c3cc(F)c(CN4Cc5scc(Br)c5C4=O)c(F)c3)ccc2n1 [Compound 33, 3-bromo-5-(2,6-difluoro-4-(2-methyl-2H-indazol-5-yl)benzyl)-5,6-dihydro-4H-thieno[2,3-c]pyrrol-4-one]
35% | – | Cn1cc(-c2cc(F)c(CN3Cc4cn(CC5CCCO5)nc4C3=O)c(F)c2)cn1 (stereo not shown) [Compound 34, 5-(2,6-difluoro-4-(1-methyl-1H-pyrazol-4-yl)benzyl)-2-((tetrahydrofuran-2-yl)methyl)-4,5-dihydropyrrolo[3,4-c]pyrazol-6(2H)-one]
73% | – | Cn1cc(-c2cc(F)c(CN3Cc4cnn(CC5CCCO5)c4C3=O)c(F)c2)cn1 (stereo not shown) [Compound 35, 5-(2,6-difluoro-4-(1-methyl-1H-pyrazol-4-yl)benzyl)-1-((tetrahydrofuran-2-yl)methyl)-4,5-dihydropyrrolo[3,4-c]pyrazol-6(1H)-one]
82% | 1.48 µM | Cn1cc2cc(-c3cc(F)c(CN4Cc5cnn(CC6CCCO6)c5C4=O)c(F)c3)ccc2n1 (stereo not shown) [Compound 36, 5-(2,6-difluoro-4-(2-methyl-2H-indazol-5-yl)benzyl)-1-((tetrahydrofuran-2-yl)methyl)-4,5-dihydropyrrolo[3,4-c]pyrazol-6(1H)-one]
77% | 3.22 µM | Cc1nn(C)cc1-c1cc(F)c(CN2Cc3cnn(CC4CCCO4)c3C2=O)c(F)c1 (stereo not shown) [Compound 37, 5-(4-(1,3-dimethyl-1H-pyrazol-4-yl)-2,6-difluorobenzyl)-1-((tetrahydrofuran-2-yl)methyl)-4,5-dihydropyrrolo[3,4-c]pyrazol-6(1H)-one]
66% | 6.89 µM | Cn1cc2cccc(-c3cc(F)c(CN4Cc5cnn(CC6CCCO6)c5C4=O)c(F)c3)c2n1 (stereo not shown) [Compound 38, 5-(2,6-difluoro-4-(2-methyl-2H-indazol-7-yl)benzyl)-1-((tetrahydrofuran-2-yl)methyl)-4,5-dihydropyrrolo[3,4-c]pyrazol-6(1H)-one]
65% | 3.58 µM | Cc1cc(-c2cc(F)c(CN3Cc4cnn(CC5CCCO5)c4C3=O)c(F)c2)ccn1 (stereo not shown) [Compound 39, 5-(2,6-difluoro-4-(2-methylpyridin-4-yl)benzyl)-1-((tetrahydrofuran-2-yl)methyl)-4,5-dihydropyrrolo[3,4-c]pyrazol-6(1H)-one]
67% | 3.97 µM | Cn1cc2c(-c3ccc(CN4Cc5sccc5C4=O)c(F)c3)cccc2n1 [Compound 40, 5-(2-fluoro-4-(2-methyl-2H-indazol-4-yl)benzyl)-5,6-dihydro-4H-thieno[2,3-c]pyrrol-4-one]
69% | – | Cn1cc(-c2ccc(CN3Cc4sccc4C3=O)c(F)c2)cn1 [Compound 41, 5-(2-fluoro-4-(1-methyl-1H-pyrazol-4-yl)benzyl)-5,6-dihydro-4H-thieno[2,3-c]pyrrol-4-one]
46% | – | Cn1ccc(-c2ccc(CN3Cc4sccc4C3=O)c(F)c2)n1 [Compound 42, 5-(2-fluoro-4-(1-methyl-1H-pyrazol-3-yl)benzyl)-5,6-dihydro-4H-thieno[2,3-c]pyrrol-4-one]

Second part, the compound before the results:

SMILES | Emax | EC50
Cn1cc2c(-c3cc(F)c(CN4Cc5cn(CCN6CCCC6)nc5C4=O)c(F)c3)cccc2n1 [Compound 21, 5-(2,6-difluoro-4-(2-methyl-2H-indazol-4-yl)benzyl)-2-(2-(pyrrolidin-1-yl)ethyl)-4,5-dihydropyrrolo[3,4-c]pyrazol-6(2H)-one] | 57% | 5.18 µM
Cn1cc2cc(-c3cc(F)c(CN4Cc5ncsc5C4=O)c(F)c3)ccc2n1 [Compound 22, 5-(2,6-difluoro-4-(2-methyl-2H-indazol-5-yl)benzyl)-4,5-dihydro-6H-pyrrolo[3,4-d]thiazol-6-one] | 28% | 0.37 µM
Cc1ccc(-c2cc(F)c(CN3Cc4ncsc4C3=O)c(F)c2)cn1 [Compound 23, 5-(2,6-difluoro-4-(6-methylpyridin-3-yl)benzyl)-4,5-dihydro-6H-pyrrolo[3,4-d]thiazol-6-one] | 27% | –
Cn1cc2c(-c3cc(F)c(CN4Cc5cnn(CCO)c5C4=O)c(F)c3)cccc2n1 [Compound 24, 5-(2,6-difluoro-4-(2-methyl-2H-indazol-4-yl)benzyl)-1-(2-hydroxyethyl)-4,5-dihydropyrrolo[3,4-c]pyrazol-6(1H)-one] | 80% | 0.91 µM
Cn1cc2c(-c3cc(F)c(CN4Cc5cn(CCO)nc5C4=O)c(F)c3)cccc2n1 [Compound 25, 5-(2,6-difluoro-4-(2-methyl-2H-indazol-4-yl)benzyl)-2-(2-hydroxyethyl)-4,5-dihydropyrrolo[3,4-c]pyrazol-6(2H)-one] | 74% | 9.15 µM
Cn1cc2cc(-c3cc(F)c(CN4Cc5sccc5C4=O)c(F)c3)ccc2n1 [Compound 26, 5-(2,6-difluoro-4-(2-methyl-2H-indazol-5-yl)benzyl)-5,6-dihydro-4H-thieno[2,3-c]pyrrol-4-one] | 59% | 1.02 µM
Cn1cnc2ccc(-c3cc(F)c(CN4Cc5sccc5C4=O)c(F)c3)cc21 [Compound 27, 5-(2,6-difluoro-4-(1-methyl-1H-benzo[d]imidazol-6-yl)benzyl)-5,6-dihydro-4H-thieno[2,3-c]pyrrol-4-one] | 60% | 2.87 µM
Cc1n[nH]c2ccc(-c3cc(F)c(CN4Cc5sccc5C4=O)c(F)c3)cc12 [Compound 28, 5-(2,6-difluoro-4-(3-methyl-1H-indazol-5-yl)benzyl)-5,6-dihydro-4H-thieno[2,3-c]pyrrol-4-one] | 57% | –
Cc1cc(-c2cc(F)c(CN3Cc4sccc4C3=O)c(F)c2)cc2cn[nH]c12 [Compound 29, 5-(2,6-difluoro-4-(7-methyl-1H-indazol-5-yl)benzyl)-5,6-dihydro-4H-thieno[2,3-c]pyrrol-4-one] | 45% | –
